{
  "source": "patent US20140001056A1",
  "about": "(priority 2011, published 2014)",
  "key": {"[1]": {"target": "α-HL heptamer (Staphylococcus aureus, UniProt P09616)", "sequence (P09616 27-319 limits assumed)": "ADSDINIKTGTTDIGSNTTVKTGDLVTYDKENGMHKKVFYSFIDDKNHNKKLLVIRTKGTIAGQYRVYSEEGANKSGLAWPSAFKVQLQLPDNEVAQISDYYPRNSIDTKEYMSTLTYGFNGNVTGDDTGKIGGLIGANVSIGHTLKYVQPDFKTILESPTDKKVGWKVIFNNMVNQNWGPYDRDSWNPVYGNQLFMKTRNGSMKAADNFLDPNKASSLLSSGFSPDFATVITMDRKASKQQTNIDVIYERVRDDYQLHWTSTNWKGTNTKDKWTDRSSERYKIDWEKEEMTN"}, "[2]": {"target": "α-HL monomer (Staphylococcus aureus, UniProt P09616)", "sequence (P09616 27-319 limits assumed)": "as above"}, "[3]": {"target": "MspA (NNNRRK mutant) (Mycolicibacterium smegmatis, UniProt A0QR29, D117N/D118N/D120N/D145R/D161R/E166K)", "sequence (A0QR29 28-211 D117N/D118N/D120N/D145R/D161R/E166K limits assumed)": "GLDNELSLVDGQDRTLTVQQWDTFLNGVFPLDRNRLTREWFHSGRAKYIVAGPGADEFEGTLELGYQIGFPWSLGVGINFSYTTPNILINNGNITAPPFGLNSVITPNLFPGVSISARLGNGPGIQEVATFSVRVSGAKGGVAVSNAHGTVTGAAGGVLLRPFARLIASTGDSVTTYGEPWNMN"}, "[4]": {"target": "WT-Kcv (Paramecium bursaria Chlorella virus 1, UniProt Q84568)", "sequence (Q84568 whole entry, looked up)": "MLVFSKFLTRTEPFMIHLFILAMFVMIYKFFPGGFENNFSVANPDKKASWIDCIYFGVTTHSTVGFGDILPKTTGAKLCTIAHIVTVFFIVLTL"}, "[5]": {"target": "T1, WT-α-HL pore (Staphylococcus aureus, UniProt P09616)", "T1 sequence (P09616 27-319 limits assumed)": "as the sequence (P09616 27-319 limits assumed) above", "assay_type": "binding"}, "[6]": {"target": "T1, WT-α-HL pore", "details": "cited from earlier work"}},
  "note": "“And” between values parts separate entries of the source, which are not always exact repeats. Identical values can stand only once. Like-named read-outs stand apart in the source and are kept apart here.",
  "data": [
    {"substance": "C6F13C2H4—S-poly[tris(hydroxymethyl)aminomethane] [F6TAC]", "values": [
      {"measurement": "Initial rate of release of dye", "setting": "[1]", "result": 16, "unit": "% min^−1"},
      {"measurement": "Lag time before initiation of release", "setting": "[1]", "result": 4.8, "unit": "min"},
      {"measurement": "Initial rate of release of dye", "setting": "[2]", "result": 6.5, "unit": "% min^−1"},
      {"measurement": "Lag time before initiation of release", "setting": "[2]", "result": 7.5, "unit": "min"}
    ]},
    {"substance": "Fluorinated fos-choline [F6FC]", "values": [
      {"measurement": "blockades or gating changes of MspA pores already inserted", "setting": "[3]", "result": "did not cause blockades or changes in the gating"},
      {"measurement": "insertion of MspA pores into planar lipid bilayer", "setting": "[3]", "result": "No further insertion events occur"},
      {"measurement": "blockades or gating changes of Kcv channels already inserted", "setting": "[4]", "result": "did not cause blockades or changes in the gating"},
      {"measurement": "insertion of Kcv channels into planar lipid bilayer", "setting": "[4]", "result": "No openings are seen"},
      {"measurement": "single-channel IV curve of Kcv", "setting": "[4]", "result": "unchanged"},
      {"measurement": "Lag time before initiation of release", "setting": "[1]", "result": "2.8 min and 4.3 min"},
      {"measurement": "Percent release of dye at end point", "setting": "[2]", "result": "0.2% and 0.3%"},
      {"measurement": "gα-HL, unitary conductance in the absence of βCD", "setting": "[5]; pH 7.5", "result": "650 ± 3 pS and 721 ± 4 pS"}
    ]},
    {"substance": "Fluorinated octyl maltoside [F6OM]", "values": [
      {"measurement": "Initial rate of release of dye", "setting": "[1]", "result": 16, "unit": "% min^−1"},
      {"measurement": "Lag time before initiation of release", "setting": "[1]", "result": 1.8, "unit": "min"},
      {"measurement": "Initial rate of release of dye", "setting": "[2]", "result": 4, "unit": "% min^−1"},
      {"measurement": "Lag time before initiation of release", "setting": "[2]", "result": 4.4, "unit": "min"}
    ]},
    {"substance": "β-cyclodextrin [βCD]", "values": [
      {"measurement": "gα-HL·βCD, unitary conductance with βCD bound", "setting": "[6]", "result": "253 ± 4 pS and 240 ± 3 pS"},
      {"measurement": "koff", "setting": "[6]", "result": "2.1 ± 0.2 × 10^3 s^−1 and 1.3 ± 0.1 × 10^3 s^−1"},
      {"measurement": "kon", "setting": "[6]", "result": "2.8 ± 0.2 × 10^5 M^−1s^−1 and 4.0 ± 0.3 × 10^5 M^−1s^−1"},
      {"measurement": "Kd", "setting": "[5]", "result": "5.4 mM and 9.6 mM"},
      {"measurement": "gα-HL·βCD, unitary conductance with βCD bound", "setting": "[5]", "result": "257 ± 3 pS and 232 ± 4 pS"},
      {"measurement": "koff", "setting": "[5]", "result": "1.7 ± 0.1 × 10^3 s^−1 and 2.4 ± 0.3 × 10^3 s^−1"},
      {"measurement": "kon", "setting": "[5]", "result": "3.1 ± 0.1 × 10^5 M^−1s^−1 and 2.5 ± 0.4 × 10^5 M^−1s^−1"}
    ]}
  ]
}
